In patent US11685734B2, “ATM kinase inhibitors and compositions and methods of use thereof” (CHDI Foundation, Inc., priority 2019, dated 2023):

Tests used:
[1] = molecular target: Recombinant, full length human FLAG-tagged ATM (Homo sapiens (Human), UniProt Q13315); assay: ATM ELISA for p53 S15 phosphorylation; type: biochemical; settings: 0.75 nM ATM, 25 nM p53, 10 μM ATP, 30 min at 20° C.; read-out: ATM BIO IC50
Procedure: ATM: Recombinant, full length human FLAG-tagged ATM activity (Eurofins 14-933) was measured in an ELISA for p53 S15 phosphorylation, in a 384 well V-bottom polypropylene plate (Greiner Bio One 781280). Reactions contained 0.75 nM ATM, 25 nM full length myc tagged p53 (Eurofins 23-034), 10 μM UltraPure ATP (Promega V915B) and serial dilutions of inhibitors (0.1% DMSO final) in 25 mM HEPES, pH 7.5. 5 mM MgCl2, 2.5 mM MnCl2, 0.006% Brij-35, 0.5% glycerol, 0.1 mg/ml BSA, 0.5 mM DTT and were allowed to proceed for 30 min at 20° C. 70 mM EDTA final terminated the kinase reactions. An aliquot of the terminated reaction (25 μl) was transferred to a 384-well, high binding microplate (Greiner Bio One 781061), precoated with anti-myc capture antibody overnight (Millipore 05-724) diluted in 1:1000 in PBS, then blocked with Odyssey blocking buffer (LI-COR Biosciences 92740000) for 60 min at 20° C. The terminated reaction was allowed to capture for 2 h at 20° C. Phosphorylation was measured using an antibody specific to p53 S15 phosphorylation (1:5000 Abcam ab38497), anti-rabbit HRP (1:1000 Cell Signalling Technology, 7074) and TMB (ab171522). Antibodies were diluted in Odyssey blocking buffer and incubated for 60 min at 20° C. Three washes with PBS containing 0.05% (v/v) Tween 20 (PBS-T) were performed between each incubation. The TMB reaction was stopped with an equal volume of 0.2 M sulfuric acid and absorbance read at 450 nm on the Perkin Elmer Envision within 30 min of terminating the reaction. […] IC50 values represent the mean from at least two independent experiments.

[2] = molecular target: cellular ATM activity (Homo sapiens (Human), UniProt Q13315); assay: Inhibition of cellular ATM activity: etoposide-stimulated KAP1 phosphorylation in U20S cells; type: cell-based; settings: 100 μM etoposide, 60 min, read-out: ATM CELL IC50
Procedure: Inhibition of cellular ATM activity was determined by changes in etoposide-stimulated KAP1 phosphorylation, based on the work of Guo et al. 2014.
Cryopreserved U20S cells were plated overnight at 6 k cells/well in black walled, clear bottomed 384 well plates (Greiner Bio One 781090). After overnight incubation (37 C, 5% CO2), cells were incubated with titrations of test compounds (0.3% DMSO final) in the presence of 100 μM etoposide (Sigma E1383) to stimulate ATM via induction of double stranded DNA breaks. After 60 min, cells were fixed using 100% cold methanol and incubated at −20° C. for 10 min. Fixed cells were washed with PBS containing 0.05% (v/v) Tween 20 (PBS-T) prior to a 60 minute blocking step in Odyssey blocking buffer (LI-COR Biosciences 92740000). Primary antibodies (1:1000 phosphorylated KAP1: Cell Signalling Technology 4127, 1:5000 total KAP1: Cell Signaling Technology 5868) were diluted in Odyssey blocking buffer and incubated overnight at 4° C., before addition of IRDye(R) conjugated secondary antibodies (LI-COR Biociences 926-32211, LI-COR Biosciences 926-68070) diluted 1:2000 in Odyssey blocking buffer for 60 min at room temperature and detection by LI-COR Odyssey (ImageStudio version 2.1.10, focus offset 4 mm, resolution 169 μm, lowest quality, intensities of 1 and 3 for 700 and 800 channels respectively). Immunoreactivity was quantified and the ratio of phosphorylated KAP1 calculated by dividing by the total KAP1 immunoreactivity. The percentage of inhibition was calculated for each concentration of compound using 100% (100 μM etoposide+30 μM KU-60019) and 0% effect controls (100 μM etoposide+DMSO). IC50 values represent the mean from at least two independent experiments.

Sequence of cellular ATM activity (Q13315 whole entry): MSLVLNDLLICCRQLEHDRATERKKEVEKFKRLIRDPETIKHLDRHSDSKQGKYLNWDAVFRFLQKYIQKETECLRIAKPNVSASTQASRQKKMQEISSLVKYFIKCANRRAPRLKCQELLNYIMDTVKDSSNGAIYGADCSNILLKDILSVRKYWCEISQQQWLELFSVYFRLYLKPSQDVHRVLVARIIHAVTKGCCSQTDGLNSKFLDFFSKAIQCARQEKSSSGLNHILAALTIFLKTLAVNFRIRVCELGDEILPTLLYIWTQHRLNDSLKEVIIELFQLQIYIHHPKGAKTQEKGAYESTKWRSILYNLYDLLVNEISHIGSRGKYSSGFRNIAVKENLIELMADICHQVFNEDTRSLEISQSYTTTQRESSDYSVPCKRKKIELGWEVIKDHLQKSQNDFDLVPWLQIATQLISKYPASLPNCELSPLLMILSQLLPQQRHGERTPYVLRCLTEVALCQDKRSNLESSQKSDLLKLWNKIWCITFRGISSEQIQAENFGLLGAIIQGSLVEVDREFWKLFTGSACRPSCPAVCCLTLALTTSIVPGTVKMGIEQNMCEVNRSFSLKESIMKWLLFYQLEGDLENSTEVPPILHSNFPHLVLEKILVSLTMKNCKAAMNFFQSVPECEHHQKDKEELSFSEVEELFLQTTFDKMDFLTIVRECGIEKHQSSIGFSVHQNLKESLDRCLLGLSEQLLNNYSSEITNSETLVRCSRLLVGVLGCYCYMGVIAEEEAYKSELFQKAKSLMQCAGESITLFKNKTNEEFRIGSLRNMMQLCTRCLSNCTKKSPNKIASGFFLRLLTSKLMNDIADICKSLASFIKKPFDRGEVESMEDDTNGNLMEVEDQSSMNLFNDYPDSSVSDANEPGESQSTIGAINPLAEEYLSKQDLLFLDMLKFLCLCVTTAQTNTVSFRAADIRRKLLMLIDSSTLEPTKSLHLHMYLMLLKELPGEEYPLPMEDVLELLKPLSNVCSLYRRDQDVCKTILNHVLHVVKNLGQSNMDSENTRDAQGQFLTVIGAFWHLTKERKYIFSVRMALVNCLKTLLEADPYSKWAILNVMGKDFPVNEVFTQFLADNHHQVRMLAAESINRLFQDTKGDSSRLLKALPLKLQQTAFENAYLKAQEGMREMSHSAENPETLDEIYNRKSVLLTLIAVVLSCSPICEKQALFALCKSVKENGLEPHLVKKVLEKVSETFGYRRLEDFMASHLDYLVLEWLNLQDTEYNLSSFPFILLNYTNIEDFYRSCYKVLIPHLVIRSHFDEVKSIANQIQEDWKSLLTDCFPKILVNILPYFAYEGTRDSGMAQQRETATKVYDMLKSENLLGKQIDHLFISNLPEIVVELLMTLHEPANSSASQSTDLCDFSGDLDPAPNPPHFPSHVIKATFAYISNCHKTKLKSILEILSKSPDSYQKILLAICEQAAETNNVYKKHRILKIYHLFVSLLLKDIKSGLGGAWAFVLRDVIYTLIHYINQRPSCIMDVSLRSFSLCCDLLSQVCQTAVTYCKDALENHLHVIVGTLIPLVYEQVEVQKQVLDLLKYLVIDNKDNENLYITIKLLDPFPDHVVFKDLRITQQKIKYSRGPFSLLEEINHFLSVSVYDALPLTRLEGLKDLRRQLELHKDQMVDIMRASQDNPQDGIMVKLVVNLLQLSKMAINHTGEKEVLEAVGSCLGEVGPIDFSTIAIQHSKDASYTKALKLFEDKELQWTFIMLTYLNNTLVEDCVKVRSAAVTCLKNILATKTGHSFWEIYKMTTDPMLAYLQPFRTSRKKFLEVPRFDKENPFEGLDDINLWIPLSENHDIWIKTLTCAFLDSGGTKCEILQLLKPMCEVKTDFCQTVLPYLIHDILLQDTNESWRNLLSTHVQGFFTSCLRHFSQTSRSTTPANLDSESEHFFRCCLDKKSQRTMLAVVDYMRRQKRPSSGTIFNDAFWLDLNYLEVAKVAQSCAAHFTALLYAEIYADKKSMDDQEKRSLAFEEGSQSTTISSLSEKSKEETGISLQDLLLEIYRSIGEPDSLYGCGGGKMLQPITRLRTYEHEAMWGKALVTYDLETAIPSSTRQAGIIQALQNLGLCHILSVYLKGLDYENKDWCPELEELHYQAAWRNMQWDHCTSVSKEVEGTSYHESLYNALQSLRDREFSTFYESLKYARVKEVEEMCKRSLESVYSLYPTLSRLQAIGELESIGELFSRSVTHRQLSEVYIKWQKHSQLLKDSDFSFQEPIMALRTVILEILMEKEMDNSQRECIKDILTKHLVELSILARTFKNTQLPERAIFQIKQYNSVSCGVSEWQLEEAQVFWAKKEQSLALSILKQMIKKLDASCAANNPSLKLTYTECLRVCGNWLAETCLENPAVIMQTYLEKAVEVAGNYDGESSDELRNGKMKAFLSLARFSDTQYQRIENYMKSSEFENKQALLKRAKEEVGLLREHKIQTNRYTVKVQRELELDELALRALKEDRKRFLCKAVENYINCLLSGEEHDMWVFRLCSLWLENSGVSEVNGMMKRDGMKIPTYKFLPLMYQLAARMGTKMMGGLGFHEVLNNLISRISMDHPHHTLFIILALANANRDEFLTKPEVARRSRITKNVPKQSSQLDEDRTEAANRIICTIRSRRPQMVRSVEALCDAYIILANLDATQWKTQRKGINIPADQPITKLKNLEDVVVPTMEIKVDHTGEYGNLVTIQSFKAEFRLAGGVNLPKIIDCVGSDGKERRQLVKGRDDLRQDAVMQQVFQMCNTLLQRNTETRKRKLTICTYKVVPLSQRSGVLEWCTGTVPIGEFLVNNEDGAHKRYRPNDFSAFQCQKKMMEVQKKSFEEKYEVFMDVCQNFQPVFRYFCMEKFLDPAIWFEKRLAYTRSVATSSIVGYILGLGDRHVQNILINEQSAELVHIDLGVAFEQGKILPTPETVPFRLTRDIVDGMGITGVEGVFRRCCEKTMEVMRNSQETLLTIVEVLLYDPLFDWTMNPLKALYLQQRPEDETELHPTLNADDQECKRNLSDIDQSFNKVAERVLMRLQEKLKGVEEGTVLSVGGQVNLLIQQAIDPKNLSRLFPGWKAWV
Sequence of Recombinant, full length human FLAG-tagged ATM (Q13315 whole entry): as above

| IC50 [1] | IC50 [2] | Structure (SMILES) |
| --- | --- | --- |
| 0.0405 µM | 1.85 µM | COc1ccccc1C[C@H]1[C@H](C)CCN1c1nc(N2CCO[C@H](C)C2)cc(=O)[nH]1 [Example 296, 2-((2S,3R)-2-(2-methoxybenzyl)-3-methylpyrrolidin-1-yl)-6-((R)-2-methylmorpholino)pyrimidin-4(3H)-one] |
| 0.0897 µM | 0.969 µM | C[C@@H]1CN(c2cc(=O)[nH]c(N3CCC[C@@H]3Cc3ccc(Cl)c(Cl)c3)n2)CCO1 [Example 278, 2-[(2R)-2-[(3,4-dichlorophenyl)methyl]pyrrolidin-1-yl]-4-[(2R)-2-methylmorpholin-4-yl]-1H-pyrimidin-6-one] |
| 0.0087 µM | 0.178 µM | O=c1cc(N2CCOCC2)cc(N2C[C@H]3CC[C@H](C3)[C@@H]2Cc2ccccc2)[nH]1 [Example 135] |
| 0.004 µM | 0.411 µM | CO[C@@H]1CCN(c2nc(N3CCOCC3)cc(=O)[nH]2)[C@H]1Cc1ccccc1 [Example 257, 2-((2S,3R)-2-benzyl-3-methoxypyrrolidin-1-yl)-6-morpholinopyrimidin-4(3H)-one] |
| 0.0362 µM | 3.38 µM | O=c1cc(N2CCOCC2)cc(N2CCC[C@@H]2Cc2ccccc2)[nH]1 [Example 1, (R)-6-(2-benzylpyrrolidin-1-yl)-4-morpholinopyridin-2(1H)-one] |
| 0.0123 µM | 0.26 µM | O=c1cc(N2CCOCC2)cc(N2CCCCC[C@@H]2Cc2cccs2)[nH]1 [Example 31, 4-morpholino-6-[(2R)-2-(2-thienylmethyl)azepan-1-yl]-1H-pyridin-2-one] |
| 0.0553 µM | 2.68 µM | COc1cccc(C[C@H]2CCCN2c2cc(N3CCOCC3)cc(=O)[nH]2)c1 [Example 22, (R)-6-(2-(3-methoxybenzyl)pyrrolidin-1-yl)-4-morpholinopyridin-2(1H)-one] |
| 0.0108 µM | 0.318 µM | O=c1cc(N2CCOCC2)cc(N2CCCCC[C@@H]2Cc2ccccc2F)[nH]1 [Example 78, (R)-6-(2-(2-fluorobenzyl)azepan-1-yl)-4-morpholinopyridin-2(1H)-one] |
| 0.0187 µM | 0.603 µM | COc1ccc(OC)c(C[C@H]2CCCCCN2c2cc(N3CCOCC3)cc(=O)[nH]2)c1 [Example 66] |
| 0.0164 µM | 0.813 µM | C[C@@H]1CN(c2cc(=O)[nH]c(N3CCCCC[C@@H]3Cc3ccsc3)n2)CCO1 [Example 315, 6-((R)-2-methylmorpholino)-2-((R)-2-(thiophen-3-ylmethyl)azepan-1-yl)pyrimidin-4(3H)-one] |
| 0.0173 µM | 1.24 µM | CC1(C)CCC[C@H](Cc2ccccc2)N(c2nc(N3CCOCC3)cc(=O)[nH]2)C1 [Example 245] |
| 0.0894 µM | 4.16 µM | O=c1cc(N2CCOCC2)cc(N2CCC[C@@H]2Cc2ccc(F)cc2)[nH]1 [Example 16, (R)-6-(2-(4-fluorobenzyl)pyrrolidin-1-yl)-4-morpholino pyridin-2(1H)-one] |
| 0.0039 µM | 0.26 µM | O=c1cc(N2CCOCC2)nc(N2CCCCC[C@@H]2Cc2cccc3c2OCC3)[nH]1 [Example 225] |
| 0.0709 µM | 1.27 µM | O=c1cc(N2CCOCC2)nc(N2CC[C@H](O)[C@@H]2Cc2ccccc2)[nH]1 [Example 255, 2-((2S,3S)-2-benzyl-3-hydroxypyrrolidin-1-yl)-6-morpholinopyrimidin-4(3H)-one] |
| 0.0331 µM | 1.63 µM | CC1C[C@H](Cc2ccccc2)N(c2cc(N3CCOCC3)cc(=O)[nH]2)C1 (single isomer, unassigned) [Example 100, 6-((2R,4R*)-2-benzyl-4-methylpyrrolidin-1-yl)-4-morpholinopyridin-2(1H)-one] |
| 0.0192 µM | 0.957 µM | C[C@@H]1CN(c2cc(=O)[nH]c(N3CCCCC[C@@H]3Cc3ccc(F)cc3)n2)CCO1 [Example 304, 2-((R)-2-(4-fluorobenzyl)azepan-1-yl)-6-((R)-2-methylmorpholino)pyrimidin-4(3H)-one] |
| 0.0909 µM | 1.68 µM | CC1C[C@H](Cc2ccccc2)N(c2nc(N3CCO[C@H](C)C3)cc(=O)[nH]2)C1 (single isomer, unassigned) [Example 320] |
| 0.0391 µM | 0.874 µM | O=c1cc(N2CCOCC2)cc(N2CC[C@@H](OC(F)F)[C@@H]2Cc2ccccc2)[nH]1 [Example 90, 6-((2S,3R)-2-benzyl-3-(difluoromethoxy)pyrrolidin-1-yl)-4-morpholinopyridin-2(1H)-one] |
| 0.008 µM | 0.451 µM | O=c1cc(N2CCOCC2)nc(N2CCC[C@@H]2Cc2ccccc2)[nH]1 [Example 178, (R)-2-(2-benzylpyrrolidin-1-yl)-6-morpholinopyrimidin-4-ol] |
| 0.023 µM | 0.977 µM | COc1cc(F)ccc1C[C@H]1CCCCCN1c1cc(N2CCOCC2)cc(=O)[nH]1 [Example 50, (R)-6-(2-(4-fluoro-2-methoxybenzyl)azepan-1-yl)-4-morpholinopyridin-2(1H)-one] |
| 0.0287 µM | 1.06 µM | Cc1cc(C[C@H]2CCCN2c2nc(N3CCOCC3)cc(=O)[nH]2)cc(C)n1 [Example 188] |
| 0.0033 µM | 0.248 µM | O=c1cc(N2CCOCC2)cc(N2C[C@@H]3CCC[C@@H]3[C@@H]2Cc2ccccc2)[nH]1 [Example 124] |
| 0.0012 µM | 0.548 µM | Cc1ccccc1C[C@H]1CCCCCN1c1nc(N2CCOCC2)cc(=O)[nH]1 [Example 181, (R)-2-(2-(2-methylbenzyl)azepan-1-yl)-6-morpholinopyrimidin-4(3H)-one] |
| 0.0089 µM | 0.377 µM | O=c1cc(N2CCOCC2)nc(N2C[C@H]3C[C@H]3[C@@H]2Cc2ccc(F)cc2)[nH]1 [Example 209] |
| 0.0702 µM | 2.68 µM | CC1(C)CCCN(c2cc(N3CCOCC3)cc(=O)[nH]2)[C@@H](Cc2ccccc2)C1 [Example 76, (R)-6-(2-benzyl-4,4-dimethylazepan-1-yl)-4-morpholinopyridin-2(1H)-one] |
| 0.0015 µM | 0.194 µM | CC1CCC[C@H](Cc2ccccc2)N(c2nc(N3CCOCC3)cc(=O)[nH]2)C1 (single isomer, unassigned) [Example 247] |
| 0.0065 µM | 0.527 µM | COc1cccc(C[C@H]2CCCCCN2c2cc(N3CCOCC3)cc(=O)[nH]2)c1 [Example 23, (R)-6-(2-(3-methoxybenzyl)azepan-1-yl)-4-morpholinopyridin-2(1H)-one] |
| 0.0113 µM | 0.434 µM | O=c1cc(N2CCOCC2)nc(N2CCC(F)(F)[C@@H]2Cc2ccccc2)[nH]1 [Example 253, (S)-2-(2-benzyl-3,3-difluoropyrrolidin-1-yl)-6-morpholinopyrimidin-4(3H)-one] |
| 0.0062 µM | 0.256 µM | COCCOc1ccc(C[C@H]2CCCCCN2c2nc(N3CCO[C@H](C)C3)cc(=O)[nH]2)cc1 [Example 309, 2-((R)-2-(4-(2-methoxyethoxy)benzyl)azepan-1-yl)-6-((R)-2-methylmorpholino)pyrimidin-4(3H)-one] |
| 0.024 µM | 1.53 µM | CC1OCCN(c2cc(=O)[nH]c(N3CCCC3Cc3ccccc3)n2)C1C (single isomer, unassigned) [Example 352, 2-(2-benzylpyrrolidin-1-yl)-6-(2,3-dimethylmorpholino)pyrimidin-4(3H)-one] |

| Structure (SMILES) | IC50 [1] | IC50 [2] |
| --- | --- | --- |
| C[C@@H]1CN(c2cc(=O)[nH]c(N3C[C@@H]4C[C@@H]4[C@@H]3Cc3ccccc3)n2)CCO1 [Example 292, 2-((1S,2S,5R)-2-benzyl-3-azabicyclo[3.1.0]hexan-3-yl)-6-((R)-2-methylmorpholino)pyrimidin-4(3H)-one] | 0.0055 µM | 1.31 µM |
